Test results: patent US20250360167A1 (Keryx Biopharmaceuticals, Inc., priority 2013, published 2025)

How the values were obtained:
Format in all cases: in vivo, human
[1] = system: serum bicarbonate; experiment: Phase 3 trial (Example 1): serum bicarbonate concentration; settings: for Serum Bicarbonate Concentration, Mean / Serum Bicarbonate Concentration, Median / Serum Bicarbonate Concentration, LS Mean / Serum Bicarbonate Concentration, Change from Baseline, Mean / Serum Bicarbonate Concentration, Change from Baseline, Median / Serum Bicarbonate Concentration, Treatment Differences, LS Mean (KRX-0502) − LS Mean (control), (SE): Table 18; for Serum Bicarbonate Concentration, LS Mean: ANCOVA
Experimental: Serum bicarbonate was performed at a local laboratory and was done at the Randomization Visit (Visit 4); at Visits 11 (Week 12), 14 (Week 24), 17 (Week 36), 20 (Week 48) and 21 (Week 52) during the Safety Assessment Period; and at Visit 25 (Week 56) of the Efficacy Assessment Period.
• 1. Change in serum calcium concentration at Weeks 12, 24, 36, 48, and 52 as compared to baseline (Visit 4). This variable will be analyzed using LOCF methodology. ANCOVA will be employed. The model will include treatment (fixed effect), and baseline (covariate). • 2. Change in ferritin, and TSAT at Weeks 12, 24, 36 and 48 as compared to baseline (Visit 4). This variable will be analyzed using LOCF methodology. ANCOVA will be employed. The model will include treatment (fixed effect), and baseline (covariate). • 3. Change in serum iron and TIBC at Weeks 12, 24, 36, 48, and 52 as compared to baseline (Visit 4). This variable will be analyzed using LOCF methodology. ANCOVA will be employed. The model will include treatment (fixed effect), and baseline (covariate). • 4. Change in Ca x P product at Weeks 12, 24, 36, 48, and 52 as compared to baseline (Visit 4). This variable will be analyzed using LOCF methodology. ANCOVA will be employed. The model will include treatment (fixed effect), and baseline (covariate). • 5. Change in iPTH at Weeks 12, 36, 52, and 56 as compared to baseline (Visit 4). This variable will be analyzed using LOCF methodology. ANCOVA will be employed. The model will include treatment (fixed effect), and baseline (covariate). • 6. Change in serum […], vitamin A, vitamin B-12, vitamin E, vitamin K and folic acid at Weeks 12, 36, and 52 as compared to baseline (Visit 4). This variable will be analyzed using LOCF methodology. ANCOVA will be employed. The model will include treatment (fixed effect), and baseline (covariate). • 7. Change in serum bicarbonate concentration at Weeks 12, 36, and 52 as compared to baseline (Visit 4). This variable will be analyzed using LOCF methodology. ANCOVA will be employed. The model will include treatment (fixed effect), and baseline (covariate). • 8. Change in IV iron intake at Weeks 12, 24, 36, 48, and 52 as compared to baseline (Visit 4). This variable will be analyzed using LOCF methodology. ANCOVA will be employed. The model will include treatment (fixed effect), and baseline (covariate). • 9. Change in the use of EPO (ESA) administered at Weeks 12, 24, 36, 48, and 52 as compared to baseline (Visit 4). This variable will be analyzed using LOCF methodology. ANCOVA will be employed. The model will include treatment (fixed effect), and baseline (covariate). • 10. Change in the use of Vitamin D supplementation (and its analogs) and Sensipar (cinacalcet) at Weeks 12, 24, 36, 48, and 52 as compared to baseline (Visit 4). This variable will be analyzed using LOCF methodology. ANCOVA will be employed. The model will include treatment (fixed effect), and baseline (covariate). • 11. Change in LDL, HDL, and triglycerides at Weeks 12, 36, and 52 as compared to baseline (Visit 4). This variable will be analyzed using LOCF methodology. ANCOVA will be employed. The model will include treatment (fixed effect), and baseline (covariate).

[2] = Phase 3 trial (Example 1): hospitalizations, cardiac severe adverse events
Experimental: Safety was assessed by recording and monitoring adverse events, concomitant medication use, physical examinations, and sequential blood by treatment assignment. Rates of adverse events were summarized overall and by organ system class, preferred term, severity, and suspected relationship to study drug by treatment assignment. AEs were summarized for the Washout Period, Safety Assessment Period, and Efficacy Assessment Period separately by treatment assignment. The changes from baseline in laboratory parameters over time were summarized by treatment assignment.

[3] = Phase 2 trial (Example 2): treatment failures; settings: two consecutive visits; 12-week treatment period
Experimental: If a subject has a serum phosphorus ≥6.0 mg/dL for at least two visits in a row during the 12-week treatment period, the subject is considered a treatment failure, stops study drug and exits the study.
The use of IV iron and erythropoietin stimulating agents (ESAs) is not permitted during the two-week washout and 12-week treatment periods. If a subject's hemoglobin level (Hgb) is <9.0 g/dL during the two-week washout, the subject is a screen failure. If a subject's Hgb is <9.0 g/dL for at least two visits in a row during the 12-week treatment period, the subject is considered a treatment failure, stops study drug and exits the study.
Patients were discontinued from the study if they had hemoglobin measurements <9.0 g/dL on two consecutive visits or serum phosphorus measurements ≥6.0 mg/dL on two consecutive visits following randomization.

[4] = Day 0 Baseline, Safety Assessment Period
[5] = Active Control n = 149, Ferric Citrate n = 289
[6] = Ferric Citrate vs Active Control
[7] = percent of patients, Ferric Citrate N = 289, Active Control N = 149

iron (+3), x (1, 2, 3-propanetricarboxylic acid, 2-hydroxy-), y (H2O) [KRX-0502]
Serum Bicarbonate Concentration, Mean [1, 4]: 23.92 | Serum Bicarbonate Concentration, Median [1, 4]: 24.00 | Serum Bicarbonate Concentration, LS Mean ([1]; Week 12): 25.60 | Serum Bicarbonate Concentration, Change from Baseline, Mean ([1]; Week 12): 1.57 | Serum Bicarbonate Concentration, Change from Baseline, Median ([1]; Week 12): 1.05 | Serum Bicarbonate Concentration, Mean ([1]; Week 12): 25.63 | Serum Bicarbonate Concentration, Median ([1]; Week 12): 25.00 | Serum Bicarbonate Concentration, Treatment Differences, LS Mean (KRX-0502) − LS Mean (control), (SE) ([1]; Week 12): −0.72 (0.37) | Serum Bicarbonate Concentration, LS Mean ([1]; Week 24): 25.35 | Serum Bicarbonate Concentration, Change from Baseline, Mean ([1]; Week 24): 1.48 | Serum Bicarbonate Concentration, Change from Baseline, Median ([1]; Week 24): 1.00 | Serum Bicarbonate Concentration, Mean ([1]; Week 24): 25.39 | Serum Bicarbonate Concentration, Median ([1]; Week 24): 25.45 | Serum Bicarbonate Concentration, Treatment Differences, LS Mean (KRX-0502) − LS Mean (control), (SE) ([1]; Week 24): −0.39 (0.38) | Serum Bicarbonate Concentration, LS Mean ([1]; Week 36): 25.22 | Serum Bicarbonate Concentration, Change from Baseline, Mean ([1]; Week 36): 1.36 | Serum Bicarbonate Concentration, Change from Baseline, Median ([1]; Week 36): 1.00 | Serum Bicarbonate Concentration, Mean ([1]; Week 36): 25.27 | Serum Bicarbonate Concentration, Median ([1]; Week 36): 25.00 | Serum Bicarbonate Concentration, Treatment Differences, LS Mean (KRX-0502) − LS Mean (control), (SE) ([1]; Week 36): −0.15 (0.34) | Serum Bicarbonate Concentration, LS Mean ([1]; Week 48): 24.78 | Serum Bicarbonate Concentration, Change from Baseline, Mean ([1]; Week 48): 0.91 | Serum Bicarbonate Concentration, Change from Baseline, Median ([1]; Week 48): 1.00 | Serum Bicarbonate Concentration, Mean ([1]; Week 48): 24.81 | Serum Bicarbonate Concentration, Median ([1]; Week 48): 25.00 | Serum Bicarbonate Concentration, Treatment Differences, LS Mean (KRX-0502) − LS Mean (control), (SE) ([1]; Week 48): −0.52 (0.36) | Serum Bicarbonate Concentration, LS Mean ([1]; Week 52): 24.60 | Serum Bicarbonate Concentration, Change from Baseline, Mean ([1]; Week 52): 0.71 | Serum Bicarbonate Concentration, Change from Baseline, Median ([1]; Week 52): 1.00 | Serum Bicarbonate Concentration, Mean ([1]; Week 52): 24.63 | Serum Bicarbonate Concentration, Median ([1]; Week 52): 25.00 | Serum Bicarbonate Concentration, Treatment Differences, LS Mean (KRX-0502) − LS Mean (control), (SE) ([1]; Week 52): −0.70 (0.44) | mean increase in serum bicarbonate concentration ([1]; administered for a period of 52 weeks, stated as embodiment): 0.71 mEq/L | Average Hospitalizations per Subject [2, 5]: 0.63 | Subjects with One or More Hospitalizations, % of Study Subjects [2, 5]: 34.6% | Total Hospitalizations [2, 5]: 181 | Average Hospitalizations per Subject, % Improvement [2, 6]: 24.1% | Average Hospitalizations per Subject, Difference [2, 6]: −0.20 | Subjects with One or More Hospitalizations, Relative % Difference ([2]; Ferric Citrate vs Active Control, p = 0.024): −24.2% | hospitalizations related to cardiac severe adverse events ([2]; as compared to Active Control): able to reduce hospitalizations related to cardiac severe adverse events | Subjects with One or More Hospitalizations ([2]; number of subjects, Active Control n = 149, Ferric Citrate n = 289): 100 | Cardiac Disorders, % [2, 7]: 4.8% | Gastrointestinal Disorders, % [2, 7]: 6.2% | Infections, % [2, 7]: 12.1% | Treatment Failures (n), Hemoglobin <9.0 g/dL [3]: 1 | Treatment Failures (n), Serum Phosphorus ≥6.0 mg/dL [3]: 0
